Laboratory results taken from PubChem BioAssay AID194 (DTP/NCI, 2004).
Values joined by “and” are separate entries in the source; they are usually repeats but may differ in a detail not shown here. Equal entries are not always repeated. Records with an inconclusive call do not appear.

System: BDF1 mice, B16 melanoma s.c., survival/tumor T/C
Experiment: NCI In Vivo Anticancer Drug Screen. Data for tumor model B16 Melanoma (subcutaneous) in B6D2F1 (BDF1) mice
Description: The antitumor activity of compounds was measured in mice bearing transplantable tumors. Survival or tumor size were measured and the results are expressed as the measurement made in the treated group (T) divided by the measurement made in the vehicle treated control group (C). The tumor model used in this assay is B16 Melanoma (subcutaneous) in B6D2F1 (BDF1) mice

[1] = endpoint: median survival time, dose: 4.0 mg/kg/injection, schedule: Q01DX009 (ip), vehicle: saline, higher = longer survival
[2] = endpoint: median survival time, dose: 16.0 mg/kg/injection, schedule: Q01DX009 (ip), vehicle: saline, higher = longer survival

With O=C1c2ccccc2C(=O)c2c(NCCNCCO)ccc(NCCNCCO)c21 the T/C (endpoint: median survival time, dose: 0.5 mg/kg/injection, schedule: Q01DX009 (ip), vehicle: saline with Tween-80, higher = longer survival) was 106 % of control and 119 % of control, the T/C (endpoint: median survival time, dose: 0.5 mg/kg/injection, schedule: Q01DX009 (ip), vehicle: saline, higher = longer survival) was 111 % of control and the T/C (endpoint: median survival time, dose: 1.0 mg/kg/injection, schedule: Q01DX009 (ip), vehicle: saline with Tween-80, higher = longer survival) was 93 % of control and 115 % of control. The T/C (endpoint: median survival time, dose: 1.0 mg/kg/injection, schedule: Q01DX009 (ip), vehicle: saline, higher = longer survival) was 104 % of control and 110 % of control, the T/C (endpoint: median survival time, dose: 1.0 mg/kg/injection, schedule: Q02DX009 (ip), vehicle: saline, higher = longer survival) was 100 % of control and the T/C (endpoint: median survival time, dose: 2.0 mg/kg/injection, schedule: Q01DX009 (ip), vehicle: saline with Tween-80, higher = longer survival) was 101 % of control and 108 % of control. The T/C (endpoint: median survival time, dose: 2.0 mg/kg/injection, schedule: Q01DX009 (ip), vehicle: saline, higher = longer survival) was 100 % of control and 104 % of control and 107 % of control, the T/C [1] was 92 % of control and the T/C (endpoint: median survival time, dose: 4.0 mg/kg/injection, schedule: Q02DX009 (ip), vehicle: Klucel (hydroxypropylcellulose) (HPC), higher = longer survival) was 94 % of control. For the same compound, the T/C (endpoint: median survival time, dose: 4.0 mg/kg/injection, schedule: Q02DX009 (ip), vehicle: saline, higher = longer survival) was 154 % of control, the T/C (endpoint: median survival time, dose: 8.0 mg/kg/injection, schedule: Q01DX009 (ip), vehicle: Klucel (hydroxypropylcellulose) (HPC), higher = longer survival) was 104 % of control and the T/C (endpoint: median survival time, dose: 8.0 mg/kg/injection, schedule: Q01DX009 (ip), vehicle: saline, higher = longer survival) was 107 % of control. The T/C (endpoint: median survival time, dose: 8.0 mg/kg/injection, schedule: Q02DX009 (ip), vehicle: Klucel (hydroxypropylcellulose) (HPC), higher = longer survival) was 117 % of control, the T/C (endpoint: median survival time, dose: 8.0 mg/kg/injection, schedule: Q02DX009 (ip), vehicle: saline, higher = longer survival) was 110 % of control and the T/C (endpoint: median survival time, dose: 8.0 mg/kg/injection, schedule: Q02DX009 (ip), vehicle: water, higher = longer survival) was 107 % of control. The T/C (endpoint: median survival time, dose: 13.0 mg/kg/injection, schedule: Q01DX009 (ip), vehicle: Klucel (hydroxypropylcellulose) (HPC), higher = longer survival) was 104 % of control, the T/C (endpoint: median survival time, dose: 16.0 mg/kg/injection, schedule: Q01DX009 (ip), vehicle: Klucel (hydroxypropylcellulose) (HPC), higher = longer survival) was 152 % of control and the T/C [2] was 117 % of control. The T/C (endpoint: median survival time, dose: 16.0 mg/kg/injection, schedule: Q02DX009 (ip), vehicle: Klucel (hydroxypropylcellulose) (HPC), higher = longer survival) was 113 % of control, the T/C (endpoint: median survival time, dose: 16.0 mg/kg/injection, schedule: Q02DX009 (ip), vehicle: water, higher = longer survival) was 95 % of control and 106 % of control and the T/C (endpoint: median survival time, dose: 43.0 mg/kg/injection, schedule: Q04DX003 (ip), vehicle: Klucel (hydroxypropylcellulose) (HPC), higher = longer survival) was 97 % of control. For the same compound, the T/C (endpoint: median survival time, dose: 74.0 mg/kg/injection, schedule: Q01DX001 (ip), vehicle: Klucel (hydroxypropylcellulose) (HPC), higher = longer survival) was 91 % of control, the T/C (endpoint: median tumor weight (est.), dose: 13.0 mg/kg/injection, schedule: Q01DX009 (ip), vehicle: Klucel (hydroxypropylcellulose) (HPC), higher = larger tumour) was 64 % of control and the T/C (endpoint: median tumor weight (est.), dose: 43.0 mg/kg/injection, schedule: Q04DX003 (ip), vehicle: Klucel (hydroxypropylcellulose) (HPC), higher = larger tumour) was 52 % of control.

c1ccc([As+](c2ccccc2)(c2ccccc2)c2ccccc2)cc1 was tested, and the T/C (endpoint: median survival time, dose: 1.87 mg/kg/injection, schedule: Q01DX009 (ip), vehicle: Klucel (hydroxypropylcellulose) (HPC), higher = longer survival) was 95 % of control and the T/C (endpoint: median survival time, dose: 3.75 mg/kg/injection, schedule: Q01DX009 (ip), vehicle: Klucel (hydroxypropylcellulose) (HPC), higher = longer survival) was 109 % of control.

In the case of O=NN(CCCl)C(=O)NC1CCCCC1, the T/C [1] is reported as 115 % of control, the T/C (endpoint: median survival time, dose: 5.18 mg/kg/injection, schedule: Q01DX007 (ip), vehicle: Klucel (hydroxypropylcellulose) (HPC), higher = longer survival) is reported as 103 % of control and the T/C (endpoint: median survival time, dose: 8.64 mg/kg/injection, schedule: Q01DX007 (ip), vehicle: Klucel (hydroxypropylcellulose) (HPC), higher = longer survival) is reported as 88 % of control. The T/C (endpoint: median survival time, dose: 12.0 mg/kg/injection, schedule: Q01DX001 (ip), vehicle: Klucel (hydroxypropylcellulose) (HPC), higher = longer survival) was 111 % of control and 112 % of control and 116 % of control, the T/C (endpoint: median survival time, dose: 14.4 mg/kg/injection, schedule: Q01DX007 (ip), vehicle: Klucel (hydroxypropylcellulose) (HPC), higher = longer survival) was 124 % of control and the T/C [2] was 175 % of control. For the same compound, the T/C (endpoint: median survival time, dose: 32.0 mg/kg/injection, schedule: Q01DX009 (ip), vehicle: saline, higher = longer survival) was 105 % of control, the T/C (endpoint: median tumor weight (est.), dose: 8.0 mg/kg/injection, schedule: Q01DX009 (ip), vehicle: Klucel (hydroxypropylcellulose) (HPC), higher = larger tumour) was 28 % of control and 47 % of control and the T/C (endpoint: median tumor weight (est.), dose: 12.5 mg/kg/injection, schedule: Q01DX001 (ip), vehicle: Klucel (hydroxypropylcellulose) (HPC), higher = larger tumour) was 96 % of control and 110 % of control. The T/C (endpoint: median tumor weight (est.), dose: 16.0 mg/kg/injection, schedule: Q01DX009 (ip), vehicle: Klucel (hydroxypropylcellulose) (HPC), higher = larger tumour) was 27 % of control, the T/C (endpoint: median tumor weight (est.), dose: 50.0 mg/kg/injection, schedule: Q01DX001 (ip), vehicle: Klucel (hydroxypropylcellulose) (HPC), higher = larger tumour) was 21 % of control and the T/C (endpoint: median tumor weight (est.), dose: 100.0 mg/kg/injection, schedule: Q01DX001 (ip), vehicle: Klucel (hydroxypropylcellulose) (HPC), higher = larger tumour) was 38 % of control.
